Assay results: US7875270B2, “Treatment solution and method for preventing posterior capsular opacification by selectively inducing detachment and/or death of lens epithelial cells” (Abbott Medical Optics Inc., priority 2002, dated 2011)

Assays:
[1] = system: human lens epithelial cells (LECs); test: Confluent LEC monolayers exposed to solutions; MTT cell viability and microscopy; format: cell-based
Procedure: (§1) As described below, the confluent monolayers of LECs, CEDCs, and RPECs grown in 96-well flat-bottom plates are exposed to varying concentrations of NaCl (an osmolyte) solution. Two hundred μl of NaCl solution (prepared as described below) are added to each well at concentrations of 137 mM, 170 mM, 340 mM, 680 mM, 1360 mM and 2000 mM NaCl, respectively. The solutions have a pH of 8.0±0.4. The concentrations of NaCl correspond to final osmolarities of about 285 to 4000 mOsm/L, respectively.
(§2) The primary and first passages of human lens epithelial cells, human corneal endothelial cells, and human retinal-pigmented epithelial cells are cultured. The LECs, the CEDCs, and the RPECs are isolated from post-mortem eyes by using standard techniques of cell isolation and enzyme digestion. See Uebersax E D, Grindstaff R D and Defoe D M Exp Eye Res. 2000 March; 70(3): 381-90; Wagner L M, Saleh S M, Boyle D J, and Takemoto D J. Mol Vis. 2002 Mar. 14; 8: 59-66; Cammarata P R, Schafer G, Chen S W, Guo Z, and Reeves R E. Invest Ophthalmol Vis Sci. 2002 February; 43(2): 425-33; Rakic J M, Galand A, and Vrensen G F. Exp Eye Res. 2000 November; 71(5): 489-94. LECs and CEDCs are cultured in Eagle's minimum essential medium (MEM). RPECs are cultured in Ham's F10 medium, supplemented with 2 mM glutamine, 25 mmol/L Hepes, pH 7.4, 10 U/mL penicillin, and 10 μg/mL streptomycin and 15% heat-inactivated foetal cow serum (FCS). The primary cultured LECs, CEDCs, and RPECs are sub-cultured at 10^4 cells/wells in 96-well flat-bottom plates until they reached 90 to 100% confluence. These cells are grown to confluence in an incubator with a humidified atmosphere of 5% CO2 at 37° C. The cells are kept in a confluent state for overnight before assays.
(§3) After treatment, the treated cells are thoroughly washed, and cultured with fresh media for twelve hours before cell viability is assessed. The capability of these cells to survive at the indicated hypertonic stress levels is assessed by an MTT assay 12-24 hours post-exposure.
(§4) MTT assay is an assay to assess mitochondria function, performed as described by Mosmann (Mosmann, T. J Immunol Methods. 1983 Dec. 16; 65(1-2): 55-63. The tetrazolium salt 3-(4,5-dimethylthiazol-2-yl)-2,5-diphenyl tetrazolium bromide (MTT; supplied by Sigma Chemical Co.) is dissolved in Phosphate's Balanced Salt (PBS) Solutions at 5 mg/ml and sterilized by passage through a 0.22 μm Millipore filter. MTT stock solution is added to growth media at a ratio of 1 to 10. Cells are incubated with this growth media for three to four hours. In cells that are alive at the time of adding MTT, mitochondrial dehydrogenase cleaves the tetrazolium ring into a dark blue formazan reaction product, which builds up in the cell. MTT-reacted cultures are observed under brightfield microscopy without further processing. Cells in each well are scored as MTT-positive if they are completely filled with reaction product (in the case of unattached cells) or contain many formazan crystals emanating from multiple foci (in the case of attached or spread cells). MTT-reacted cultures are then lysised by dimethyl sulfoxide (DMSO) and read in a Microplate Reader to obtain a measure of cell viability.
Confluent monolayers of LECs are given three washes with Hank's Balanced Salt Solutions (HBSS) to remove FCS before the experiment. LECs are prepared in 96-well culture plates as in Example 1. These cells are exposed for about five to ten minutes to 200 μl/well of treatment solutions comprising increasing concentrations (˜135 mM, ˜170 mM, ˜340 mM, ˜680 mM, ˜1360 mM and ˜2000 mM) of NaCl (an osmolyte) in the presence and the absence of 30 μM frusemide (a co-transport interference agent, an ion transport mechanism interference agent). The treatment solutions have a pH of 8.0±0.4. After treatment, the treated cells are thoroughly washed, and cultured with fresh media. The viability of the treated LECs was determined by MTT assay 12-24 hours post-treatment as described in Example 1. […]

[2] = system: human retinal-pigmented epithelial cells (RPECs); test: Confluent RPEC monolayers exposed to solutions; MTT cell viability; format: cell-based
Procedure: as §1, §2, §3, §4
Confluent monolayers of RPECs are prepared as described in Example 1. These cells are exposed for ten minutes to 200 μl/well of the solutions comprising increasing concentrations of NaCl (137 mM, 170 mM, 340 mM, 680 mM, 1360 mM and 2000 mM) at varying pH (8.4±0.5 and 10.6±0.5). The solutions of NaCl are prepared as described in Example 1. The pH of the solutions is adjusted with additions of 1 μl and 5 μl of 5N NaOH as described Example 3.
Confluent monolayers of LECs and RPECs are prepared as described in Example 1. […]
Confluent monolayers of LECs, CEDCs and RPECs are prepared as described in Example 1. […]
To assess whether there is any side effect of this treatment on other ocular cells, confluent monolayers of LECs, CEDCs and RPECs are prepared as described in Example 1. […]

[3] = system: human corneal endothelial cells (CEDCs); test: Confluent CEDC monolayers exposed to solutions; MTT cell viability; format: cell-based
Procedure: as §1
as §2, with “The primary cultured LECs, CEDCs, and RPECs are sub-cultured at 10^4 cells/wells in 96-well flat-bottom plates until they reached 90 to 100% confluence. These cells are grown to confluence in an incubator with a humidified atmosphere of 5% CO2 at 37° C. The cells are kept in a confluent state for overnight before assays.” left out
as §3
as §4, with “MTT-reacted cultures are observed under brightfield microscopy without further processing.” left out, “viability. […]” for “viability.”

primary cultured LECs = test: LECs on glass cover-slip, inverted phase-contrast microscopy; format: cell-based, human; settings: ≦200 mM NaCl, 90 μM frusemide, 3 μl of 5N NaOH
Procedure: Confluent monolayers of LECs are prepared as described in Example 1 and grown on a glass cover-slip instead of 96-well flat bottom culture plates. The LECs are then thoroughly washed to remove serum.
Ten milliliters (10 mL) of the treatment solution containing ≦200 mM NaCl, 90 μM frusemide and 3 μl of 5N NaOH is prepared in a deep 35 mm petri-dish.
The cover-slips are then transferred to the petri-dish containing the treatment solution and are kept in the treatment solution for five to ten minutes. The treatment solution is then poured away, and the cover-slips along with detached LECs are thoroughly rinsed with a fresh HBSS solution with slight pressure using an aspiration/irrigation probe. After immediate examination and photography using inverted phase contrast microscope, the LECs are kept in culture for seven days with fresh medium to examine whether any residual cells would survive.

[4] = system: human lens epithelial cells (LECs); test: Confluent LEC monolayers exposed to solutions; MTT cell viability and microscopy; format: cell-based; remark: listed apart in the source
[5] = ≧200 mM NaCl, 90 μM frusemide, 3 μl of 5N NaOH, about ten minutes
[6] = 137-2000 mM NaCl, within about five to ten minutes after addition
[7] = hypertonic stress of about 1380 mM NaCl, pH 8.0±0.4, MTT 12-24 hours post-exposure

NS(=O)(=O)c1cc(C(=O)O)c(NCc2ccco2)cc1Cl [frusemide]
LECs shrink, are lost or die ([1]; 10 μM frusemide, ≦200 mM NaCl, 3 μl of 5N NaOH, about ten minutes): more than 50% | LECs survive ([1]; 30 μM frusemide, rapid hypertonic shock with 340 mM NaCl, pH 8.0±0.4): almost no cells survive | LECs removed or killed ([1]; between 30 μM and 120 μM frusemide, ≦200 mM NaCl, 3 μl of 5N NaOH): > 90% | survival capability of the LECs (hypertonic shock NaCl concentration) ([1]; presence of 30 μM frusemide): 170 mM | RPECs removed or killed ([2]; between 30 μM and 90 μM frusemide, ≦200 mM NaCl, 3 μl of 5N NaOH): few RPECs are removed or killed | RPECs survived [2, 5]: eighty | CEDCs survived [3, 5]: more than seventy | LEC appearance at five minutes post-treatment (primary cultured LECs): rounded up and separating from their substrate | LEC appearance at ten minutes post-treatment and after washing (primary cultured LECs): substantially clear substrate | survival rate for LECs [4, 5]: less than ten

[Cl-].[Na+] [NaCl, sodium chloride]
LEC shrinkage and loss of adhesion [1, 6]: began to shrink, round up and lose adhesion from the monolayer in a dose-dependent manner | survival capability of the LECs (hypertonic shock NaCl concentration) ([1]; absence of frusemide): 200 mM | survival level of RPECs ([2]; 137-2000 mM NaCl, pH raised from 8.4±0.5 to 10.6±0.5, ten minutes): dramatic decrease in the survival level | shrinkage and loss of adhesion in RPECs [2, 6]: not seen as significantly | RPECs survive (cell viability) [2, 7]: more than eighty | shrinkage and loss of adhesion in CEDCs [3, 6]: not seen as significantly | CEDCs survive (cell viability) [3, 7]: more than eighty | LECs sensitivity to hypertonic stress ([4]; 170 and 340 mM NaCl, pH 8.0 to 10.6, ten minutes): increases with increasing pH and increasing NaCl concentrations | LEC detachment and bursting ([4]; 170 or 340 mM NaCl, pH about 8.9±0.8): detach effectively from their substrates but do not burst significantly | LECs burst and die ([4]; 170 or 340 mM NaCl, pH about 10.6±0.5, within five minutes): greater than seventy five | LECs survive (cell viability) [4, 7]: about forty | LECs survive ([4]; rapid hypertonic shock with 1380 mM NaCl, absence of frusemide, pH 8.0±0.4): about 40%
